The test system of data set [1] is Group A Beta Streptococcus. In words: Inhibitory concentration on bacteria and yeast in vitro. Type of data set: cell-based.
Data set [2] deals with Staphylococcus aureus. Described as above. Type of data set: cell-based.
Data set [3] relates to Candida albicans. The data set is described as above. Type of data set: cell-based.
The test system of data set [4] is Escherichia coli. Described as above. It is filed as cell-based.
Data set [5] deals with Neisseria meningitidis. In words: Growth inhibition on chocolate agar containing resveratrol. It is filed as cell-based. On the procedure: Stock solutions of the resveratrol, obtained from Sigma Chemical Co, St. Louis, Mo. were prepared in 100% ethanol. Different quantities of the stock solution where added to melted chocolate agar which was then poured into a petri dish and allowed to solidify. […] The final concentration of ethanol in the agar was 0.5%. Control plates containing chocolate agar and ethanol at a final concentration of 0.5% were also prepared. A culture of Neisseria […] obtained from the American Type Culture Collection. Authenticity of the bacterium was confirmed utilizing standard microbiological techniques of identification. Cultures of the bacterial isolate were inoculated onto fresh plates and then 24 hours later, a suspension was made from isolated colonies. […] Thereafter, the samples were incubated at 37° C. with or without 5% CO2. All samples were visually examined for growth of the bacterium 24 hours later to determine the resveratrol concentration that inhibits growth by 50% (MIC50) and the resveratrol concentration which inhibits any visible growth (MIC100)

Data set [6] has as its system pseudorabies virus. In words: microbe, parasite or virus in culture. Type of data set: cell-based.
Data set [7] relates to Neisseria gonorrhea. Description: Growth inhibition on chocolate agar containing resveratrol. Type of data set: cell-based. The procedure: Stock solutions of the resveratrol, obtained from Sigma Chemical Co, St. Louis, Mo. were prepared in 100% ethanol. Different quantities of the stock solution where added to melted chocolate agar which was then poured into a petri dish and allowed to solidify. […] The final concentration of ethanol in the agar was 0.5%. Control plates containing chocolate agar and ethanol at a final concentration of 0.5% were also prepared. Neisseria gonorrhea was obtained from patients diagnosed with gonorrhea. The authenticity of the bacterium was confirmed utilizing standard microbiological techniques of identification. Cultures of the bacterial isolate were inoculated onto fresh plates and then 24 hours later, a suspension was made from isolated colonies. […] Thereafter, the samples were incubated at 37° C. with or without 5% CO2. All samples were visually examined for growth of the bacterium 24 hours later to determine the concentration of resveratol that inhibits growth by 50% (MIC50) as well as the concentration which inhibits any visible growth (MIC100)

Data set [8] relates to cultured cells.
For data set [9], the system named is Pseudomonas aeruginosa. Description: Inhibitory concentration on bacteria and yeast in vitro. It is filed as cell-based.
The mark [10] stands for this setting: complete inhibition of bacterial growth after 24 hours.
[11] abbreviates: concentrations ranging from 1 μg/ml to 200 μg/ml of solution.

SMILES strings stand for the structures. ≈ marks a conversion by molar mass, not a printed value. Bounds are passed on as bounds.

For the molecule `Oc1ccc(/C=C/c2cc(O)cc(O)c2)cc1` [resveratrol, 3,5,4′-trihdyroxystilbene], the IC50 is > 200 µg/mL in [1] (Streptococcus, 50% reduction in bacterial growth after 24 hours); > 200 µg/mL in [2] (Staphylococcus aureus, 50% reduction in bacterial growth after 24 hours); > 200 µg/mL in data set [3] (Candida albicans, 50% reduction in bacterial growth after 24 hours); > 200 µg/mL in data set [4] (Escherichia coli, 50% reduction in bacterial growth after 24 hours); 100 µg/mL (≈ 438 µM) in [5] (Neisseria meningitidis, 50% reduction in bacterial growth after 24 hours); 25 µg/mL (≈ 110 µM) in data set [7] (Neisseria, 50% reduction in bacterial growth after 24 hours). In [9] (Pseudomonas aeruginosa, 50% reduction in bacterial growth after 24 hours), the IC50 is > 200 µg/mL. For the same molecule, the IC100 in [1] (setting [10]) was >200 µg/mL; in [2] (setting [10]), >200 µg/mL; in data set [3] (setting [10]), >200 µg/mL; in data set [4] (setting [10]), >200 µg/mL; in data set [5] (setting [10]), 125 µg/mL; in data set [7] (setting [10]), 75 µg/mL. The IC100 in data set [9] (setting [10]) was >200 µg/mL. For the same molecule, the growth inhibition entry in data set [1] (setting [11]), in data set [2] (setting [11]), in data set [3] (setting [11]), in data set [4] (setting [11]) and in data set [9] (setting [11]) was “does not inhibit the growth” in each case. Further, the “reversibility of effect on pseudorabies virus replication” value in data set [6] was “reversible”. Further, the inhibition at 50 µg/mL in [6] (Suid alphaherpesvirus 1, Vero, 24 h, read-out: inhibition of formation of infectious virus particles) was > 99%. Besides, in data set [6] (continuously incubated with 50 μg/ml resveratrol, 72 hours), the “infectious pseudorabies virus particles in cultures” value is on record as “virtually undetectable”. Further, in [8], the “toxicity to cultured cells” value is listed as “non-toxic to cells”.

What is called IC50 is the point on the concentration scale where inhibition reaches its midpoint. Read a high IC50 as weaker potency in that assay. Usually inhibition stands for the change of the read-out against control, counted positive when it falls.

For the origin of these results see patent US6355692B2, “Method of inhibiting formation of infectious microorganisms” (Northeastern Ohio Universities College of Medicine, priority 1998, dated 2002).
